These results are taken from paper PMC6390583 (BMC rheumatology, 2018).

The subject of data set [1] is adjuvant induced arthritis. In words: Rat adjuvant-induced arthritis (AIA) model. In kind it is in vivo.
Another data set concerns reticulocyte deployment. Put plainly: Epo induced reticulocyte deployment assay. The data set is classed as in vivo. As to conditions: rat, Epo challenge, highest concentration tested. As for the experimental part: Naïve male Lewis rats were injected intravenously with either PBS or 1000 IU of epoetin α (Procrit®, Janssen Products, LP, Horsham, PA) for two consecutive days. Reticulocytes were measured on day 4 by flow cytometry using thiozole orange as a dye as previously described.

Data set [2] has as its system CD3-/CD16+/CD56+ NK cells. In words: Circulating NK cell analysis after 14 days dosing. In kind it is in vivo, rat. How it is done:
Blood was collected and stained using BD MultiTest IMK kit (BD Biosciences, San Jose, CA) per manufacturer’s instructions. NK cell numbers were determined by using FlowJo analysis software (FlowJo, LLC, Ashland, OR) and by examining the CD3^−/CD16^+/CD56^+ population. The number of cells/μL was calculated by using the following equation: (# events in cell population/# of events in absolute bead count region) × (# beads per test/test volume), with the value beads per test indicated on the BD Trucount tube label.

The next data set concerns IL-6 induced pSTAT3. Put plainly: Clinical ex vivo IL-6 stimulation of whole blood, pSTAT3. In kind it is in vivo, healthy volunteers. The conditions noted are these: healthy volunteers, 5 mg of tofacitinib, 1 h post dose. How it is done:
(§1) Recombinant human IL-6 (400 ng/ml), or IL-7 (400 ng/ml), (R&D Systems, Minneapolis, MN) was added to blood and incubated for 10 min at 37°C. Surface antibodies were added (CD14-APC, CD3-fluorescein isothiocyanate [FITC]; BD Biosciences, San Jose, CA) and incubated on ice for an additional 20 min. Samples were lysed (Lyse/Fix, BD Biosciences, San Jose, CA) and incubated for 10 min at 37°C. Samples were washed and stored at − 70°C. For intracellular staining, samples were thawed, washed, and resuspended in BD Perm buffer III (BD Biosciences, San Jose, CA) on ice for 30 min. Samples were washed and stained with pSTAT5-PE or pSTAT3-PE (BD Biosciences, San Jose, CA) for 60 min at room temperature and then analyzed immediately on a FACSCalibur. Geometric means were determined using FlowJo analysis software.

Another data set deals with IL-7 driven pSTAT5. In words: Clinical ex vivo IL-7 stimulation of whole blood, pSTAT5. As to conditions: healthy volunteers, 5 mg tofacitinib, 1 h post dose. In kind it is in vivo. How it is done:
as §1

As for `C[C@@H]1CCN(C(=O)CC#N)C[C@@H]1N(C)c1ncnc2[nH]ccc12` [tofacitinib, reference compound], the “Reduction in paw swelling at clinical AUC exposures” value in data set [1] (exposure associated with 10 mg BID of tofacitinib) is given as ~ 60%. In data set [1] (oral BID), the “AUC60, AUC0-12 drug concentration necessary to achieve 60% inhibition of paw swelling” value stood at 1205 ng·h/mL. Besides, the “Effect on paw swelling” value in data set [1] (oral, dosed from day 7) is given as “dose-responsive efficacy”. The “Maximal inhibition of reticulocyte deployment” value in the data set on reticulocyte deployment was over 40%. Further, in data set [2] (naive rats dosed orally for 14 days), the “AUC60 for decrease of circulating NK cell numbers” value was determined as 1.23 µg·h/mL. Besides, the “Decrease in circulating NK cells at AUC60” value in data set [2] (rat, at AUC60 of paw swelling) is reported as 70%. The “Inhibition of IL-6 induced pSTAT3” value in the data set with IL-6 induced pSTAT3 is ~ 50%. In addition, the “Inhibition of IL-7 driven pSTAT5” value with IL-7 driven pSTAT5 is on record as ~ 70%.
